Experimental data: ChEMBL document CHEMBL5705903, “A DNA Hypomethylation Signature Predicts Antitumor Activity of LSD1 Inhibitors in SCLC” (Cancer Cell, 2015)
Calls of active or inactive are those of the source. The calls are words filed in the database; no cut-off is given here.

What was measured:
[1] = AUC (0 to infinity) in mouse blood at 5 mg/kg, po by HPLC/MS/MS analysis; format: ADME, organism-based
NCI-H526 [2] = assay: In vivo inhibition of LSD1 in human NCI-H526 cells xenografted in nude mouse assessed as change in UMODL1 gene expression measured after 24 hrs post single administration by qRT-PCR analysis; format: functional, organism-based; details: dose 0.06-135 mg/kg
[3] = Effect on cleaved PARP level in human NCI-H1417 cells assessed as fold change at 100 nM measured after 14 days by Western blot analysis (reference value: 1.00); format: functional; details: time 14 day
[4] = Toxicity in dog assessed as effect on ECG measured for 28 days; set-up: species or system Canis lupus familiaris; details: in vivo, 672 h, time 28 day
SHP77 = assay: Effect on SYP gene expression in human SHP77 cells at 1 uM measured after 4 days by qRT-PCR analysis; format: functional, cell-based; details: time 4.0 day
[5] = Effect on cleaved PARP level in human NCI-H524 cells assessed as fold change at 10 nM measured after 7 days by Western blot analysis (reference value: 1.00); format: functional; details: time 7 day
[6] = Effect on cleaved PARP level in human NCI-H1417 cells assessed as relative expression at 10 nM measured after 10 days by Western blot analysis (reference value: 0.19); format: functional; details: time 10 day
NCI-H69 = assay: Antitumor activity against human NCI-H69 cells xenografted in nude mouse assessed as tumor growth inhibition at 0.5 mg/kg, po administered daily measured twice weekly relative to control; format: functional; details: read-out: TGI
NCI-H510A = assay: Antitumor activity against human NCI-H510A cells xenografted in nude mouse assessed as tumor growth inhibition at 1.5 mg/kg, po administered daily measured twice weekly relative to control; format: functional; details: read-out: TGI
NCI-H526 [7] = assay: In vivo inhibition of LSD1 in human NCI-H526 cells xenografted in nude mouse assessed as change in ANXA6 gene expression administrated daily for 5 days by qRT-PCR analysis; format: functional, organism-based; details: dose 0.02-135 mg/kg, time 5.0 day
[8] = Effect on cleaved PARP level in human NCI-H1417 cells assessed as relative expression at 10 nM measured after 7 days by Western blot analysis (reference value: 0.10); format: functional; details: time 7 day
[9] = Effect on cleaved PARP level in human NCI-H526 cells assessed as relative expression at 10 nM measured after 10 days by Western blot analysis (reference value: 0.81); format: functional; details: time 10 day
[10] = Effect on cleaved PARP level in human NCI-H69 cells assessed as relative expression at 100 nM measured after 7 days by Western blot analysis (reference value: 0.02); format: functional; details: time 7 day
[11] = Effect on cleaved PARP level in human NCI-H1694 cells assessed as relative expression at 1000 nM measured after 7 days by Western blot analysis (reference value: 0.25); format: functional; details: time 7 day
[12] = Effect on cleaved PARP level in human NCI-H526 cells assessed as relative expression at 10 nM measured after 7 days by Western blot analysis (reference value: 0.57); format: functional; details: time 7 day
[13] = biological target: Lysine-specific histone demethylase 1A (Homo sapiens, UniProt O60341)
Description: Binding affinity to LSD1 (unknown origin) using H3K4me2 as substrate assessed as inactivation constant by HRP-coupled amplex red assay

[14] = Effect on cleaved PARP level in human NCI-H526 cells assessed as relative expression at 100 nM measured after 10 days by Western blot analysis (reference value: 0.81); format: functional; details: time 10 day
[15] = Toxicity in rat assessed as myelofibrosis measured for 28 days; details: in vivo, 672 h, time 28 day
[16] = Effect on cleaved PARP level in human NCI-H69 cells assessed as fold change at 100 nM measured after 7 days by Western blot analysis (reference value: 1.00); format: functional; details: time 7 day
[17] = Effect on cleaved PARP level in human NCI-H146 cells assessed as relative expression at 100 nM measured after 10 days by Western blot analysis (reference value: 0.27); format: functional; details: time 10 day
[18] = Effect on cleaved PARP level in human NCI-H510 cells assessed as relative expression at 100 nM measured after 10 days by Western blot analysis (reference value: 0.02); format: functional, NCI-H510A; details: time 10 day
[19] = Effect on cleaved PARP level in human NCI-H889 cells assessed as fold change at 100 nM measured after 14 days by Western blot analysis (reference value: 1.00); format: functional; details: time 14 day
[20] = Effect on cleaved PARP level in human NCI-H889 cells assessed as fold change at 1000 nM measured after 14 days by Western blot analysis (reference value: 1.00); format: functional; details: time 14 day
[21] = Toxicity in dog assessed as multifocal hemorrhage in organs measured for 28 days; set-up: species or system Canis lupus familiaris; details: in vivo, 672 h, time 28 day
[22] = Effect on cleaved PARP level in human NCI-H2171 cells assessed as fold change at 100 nM measured after 10 days by Western blot analysis (reference value: 1.00); format: functional; details: time 10 day
NCI-H526 [23] = assay: Upregulation of LSD1 signal enrichment at super enhancers in human NCI-H526 cells at 1 uM; format: functional, cell-based
NCI-H1417 [24] = assay: Effect on cell cycle in human NCI-H1417 cells assessed as cell accumulation at […] phase upto 1000 nM measured for 7 to 14 days by flow cytometry; format: functional, cell-based; details: time 7-14 day
NCI-H1417 [25] = assay: Cell growth inhibition of human NCI-H1417 cells measured upto 10 days; format: functional, cell-based; details: time <= 10.0 day
[26] = Effect on cleaved PARP level in human NCI-H889 cells assessed as fold change at 10 nM measured after 7 days by Western blot analysis (reference value: 1.00); format: functional; details: time 7 day
NCI-H1417 [27] = assay: In vivo inhibition of LSD1 in human NCI-H1417 cells xenografted in nude mouse assessed as change in LBH gene expression measured after 24 hrs post single administration by qRT-PCR analysis; format: functional, organism-based; details: dose 0.02-135 mg/kg
[28] = Effect on cleaved PARP level in human NCI-H889 cells assessed as relative expression at 1000 nM measured after 10 days by Western blot analysis (reference value: 0.33); format: functional; details: time 10 day
[29] = Effect on cleaved PARP level in human NCI-H146 cells assessed as fold change at 10 nM measured after 10 days by Western blot analysis (reference value: 1.00); format: functional; details: time 10 day
NCI-H526 [30] = assay: In vivo inhibition of LSD1 in human NCI-H526 cells xenografted in nude mouse assessed as change in IGFBP2 gene expression administrated daily for 5 days by qRT-PCR analysis; format: functional, organism-based; details: dose 0.02-135 mg/kg, time 5.0 day
[31] = Effect on cleaved PARP level in human NCI-H2171 cells assessed as fold change at 10 nM measured after 7 days by Western blot analysis (reference value: 1.00); format: functional; details: time 7 day
[32] = Effect on cleaved PARP level in human NCI-H1694 cells assessed as relative expression at 100 nM measured after 14 days by Western blot analysis (reference value: 0.25); format: functional; details: time 14 day
[33] = Effect on cleaved PARP level in human NCI-H510 cells assessed as relative expression at 1000 nM measured after 7 days by Western blot analysis (reference value: 0.24); format: functional, NCI-H510A; details: time 7 day
[34] = Effect on cleaved PARP level in human NCI-H524 cells assessed as fold change at 1000 nM measured after 10 days by Western blot analysis (reference value: 1.00); format: functional; details: time 10 day

O=C(O)c1ccc(CN2CCC(CN[C@@H]3C[C@H]3c3ccccc3)CC2)cc1 [GSK2879552]
AUC(0-inf) [1]: 903 ng·h/mL | inhibition (NCI-H526 [2]): Dose-Dependent Effect | fold change (FC) [3]: 0.83 | Activity [4]: Toxic | Activity (SHP77): inactive | fold change (FC) [5]: 0.99 | Activity [6]: 0.27 | inhibition in vivo at 0.5 mg/kg (NCI-H69): 51% | inhibition in vivo at 1.5 mg/kg (NCI-H510A): 38% | inhibition (NCI-H526 [7]): Dose-Dependent Effect | Activity [8]: 0.16 | Activity [9]: 0.46 | Activity [10]: 0.03 | Activity [11]: 0.36 | Activity [12]: 0.48 | Kinact [13]: 0.11 min⁻¹ | Activity [14]: 0.94 | Activity [15]: Toxic | fold change (FC) [16]: 1.32 | Activity [17]: 0.25 | Activity [18]: 0.18 | fold change (FC) [19]: 2.51 | fold change (FC) [20]: 2.82 | Activity [21]: Toxic | fold change (FC) [22]: 1.2 | Activity (NCI-H526 [23]): Active | Activity (NCI-H1417 [24]): inactive | growth inhibition (GI) (NCI-H1417 [25]): Dose-Dependent Effect | fold change (FC) [26]: 0.09 | inhibition (NCI-H1417 [27]): Dose-Dependent Effect | Activity [28]: 0.91 | fold change (FC) [29]: 1.24 | inhibition (NCI-H526 [30]): Dose-Dependent Effect | fold change (FC) [31]: 1.53 | Activity [32]: 0.23 | Activity [33]: 0.48 | fold change (FC) [34]: 0.83
